Test results published in patent publication US20190093170A1, “USE OF TRANSLATIONAL PROFILING TO IDENTIFY TARGET MOLECULES FOR THERAPEUTIC TREATMENT” (THE REGENTS OF THE UNIVERSITY OF CALIFORNIA, priority 2013, published 2019).

Tested on: PC3 human prostate cancer cells
Assay: Ribosome profiling: translational efficiency (ribosome footprint vs RNA-seq read density);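 also: Per-gene footprint-to-mRNA density ratio averaged per codon over the coding sequence, scaled so the median gene equals 1.0 after excluding regulated genes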
Type: cell-based
Conditions: for Rapamycin TrlEff: 3-hour treatment with rapamycin (50 nM) in PC3 cells
Protocol: Given the critical role for mTOR in prostate cancer, PC3 human prostate cancer cells, in which mTOR is constitutively hyperactivated, were used to delineate translationally controlled gene expression networks upon complete or partial mTOR inhibition. Ribosome profiling was optimized to assess quantitatively ribosome occupancy genome-wide in cancer cells.
Cells were subsequently treated with cycloheximide (100 μg ml^−1; Sigma) and detergent lysis was performed in the dish. The lysate was treated with DNase and clarified, and a sample was taken for RNA-seq analysis. Lysates were subjected to ribosome footprinting by nuclease treatment. Ribosome-protected fragments were purified, and deep sequencing libraries were generated from these fragments, as well as from poly(A) mRNA purified from non-nuclease-treated lysates. These libraries were analyzed by sequencing on an Illumina GAII.
Ribosome footprint and RNA-seq sequencing reads were aligned against a library of transcripts from the UCSC Known Genes database GRCh37/hg19. The first 25 nucleotides of each read were aligned using Bowtie and this initial alignment was then extended to encompass the full fragment-derived portion of the sequencing read while excluding the linker sequence. Read density profiles were then constructed for the canonical transcript of each gene, using only reads with 0 or 1 total mismatches between the read sequence and the reference sequence, comprised of the transcript fragment followed by the linker sequence. Footprint reads were assigned to an A site nucleotide at position +15 to +17 of the alignment, based on the total fragment length; mRNA reads were assigned to the first nucleotide of the alignment. The average read density per codon was then computed for the coding sequence of each transcript, excluding the first 15 and last 5 codons, which can display atypical ribosome accumulation.
Average read density was used as a measure of mRNA abundance (RNA-seq reads) and of protein synthesis (ribosome profiling reads). For most analyses, genes were filtered to require at least 256 reads in the relevant RNA-seq samples. Translational efficiency was computed as the ratio of ribosome footprint read density to RNA-seq read density, scaled to normalize the translational efficiency of the median gene to 1.0 after excluding regulated genes (log 2 fold-change+1.5 after normalizing for the all-gene median). Changes in protein synthesis, mRNA abundance and translational efficiency were similarly computed as the ratio of read densities between different samples, normalized to give the median gene a ratio of 1.0. This normalization corrects for differences in the absolute number of sequencing reads obtained for different libraries.

CO[C@H]1C[C@@H]2CC[C@@H](C)[C@@](O)(O2)C(=O)C(=O)N2CCCC[C@H]2C(=O)O[C@H]([C@H](C)C[C@@H]2CC[C@@H](O)[C@H](OC)C2)CC(=O)[C@H](C)/C=C(\C)[C@@H](O)[C@@H](OC)C(=O)[C@H](C)C[C@H](C)/C=C/C=C/C=C/1C [Rapamycin, rapamycin]
Rapamycin TrlEff (gene ACD): 2.06
TrlEff (gene ACTG1): −0.07
TrlEff (gene AGRN): 0.51
TrlEff (gene AHCY): −0.23
TrlEff (gene ALKBH7): 0.28
TrlEff (gene AP2A1): −0.04
TrlEff (gene ARD1A): 0.01
TrlEff (gene ATP5G2): −0.28
Rapamycin TrlEff (gene C17orf28): 1.66
TrlEff (gene C21orf66): −0.09
Rapamycin TrlEff (gene CCNA1): 1.81
TrlEff (gene CCNI): −0.45
TrlEff (gene CD44): −0.46
TrlEff (gene CIRBP): 0.10
TrlEff (gene CLPTM1): 0.26
TrlEff (gene COL6A2): 0.43
TrlEff (gene CRTAP): −1.17
Rapamycin TrlEff (gene DDX51): 1.68
Rapamycin TrlEff (gene DGCR2): 1.69
TrlEff (gene ECSIT): 0.41
Rapamycin TrlEff (gene EEF1A1): −1.57
TrlEff (gene EEF1A2): −0.03
TrlEff (gene EEF1D): −0.84
TrlEff (gene EEF1G): −1.15
TrlEff (gene EEF2): −1.12
TrlEff (gene EIF3H): −0.79
TrlEff (gene EIF3L): −0.85
TrlEff (gene EIF4B): −1.21
TrlEff (gene EVPL): 0.30
TrlEff (gene FAM83H): 0.71
TrlEff (gene FAM128B): 0.27
TrlEff (gene FASN): 0.47
TrlEff (gene GAPDH): −0.27
TrlEff (gene GLTSCR2): −0.68
TrlEff (gene GNB2L1): −0.77
Rapamycin TrlEff (gene GTPBP3): 1.56
TrlEff (gene HNRNPA1): −0.86
TrlEff (gene HSPA8): −0.46
TrlEff (gene IMPDH2): −0.39
TrlEff (gene LAMA5): 0.87
TrlEff (gene LMF2): 0.39
Rapamycin TrlEff (gene MAPK6): −2.43
Rapamycin TrlEff (gene MAPKAPK2): 1.50
TrlEff (gene MTA1): −0.05
TrlEff (gene NCLN): 0.67
Rapamycin TrlEff (gene NFATC21P): 1.54
Rapamycin TrlEff (gene NR2F1): 1.94
TrlEff (gene PABPC1): −1.44
TrlEff (gene PABPC4): −0.80
TrlEff (gene PACS1): 0.04
TrlEff (gene PFDN5): −0.51
TrlEff (gene PGLS): 0.20
TrlEff (gene PGM1): −0.55
TrlEff (gene PNKP): 0.74
Rapamycin TrlEff (gene PRKD3): −1.72
TrlEff (gene PTGES2): 0.52
TrlEff (gene RABGGTB): −0.84
Rapamycin TrlEff (gene RBPJ): −1.58
TrlEff (gene RPL3): −1.08
TrlEff (gene RPL4): −0.85
TrlEff (gene RPL7): −1.06
TrlEff (gene RPL7A): −0.74
TrlEff (gene RPL9): −1.00
TrlEff (gene RPL10): −0.79
TrlEff (gene RPL10A): −0.94
TrlEff (gene RPL11): −1.08
TrlEff (gene RPL12): −0.94
TrlEff (gene RPL13): −0.38
TrlEff (gene RPL15): −0.51
TrlEff (gene RPL18A): −0.82
TrlEff (gene RPL19): −0.66
TrlEff (gene RPL22): −0.89
TrlEff (gene RPL22L1): −0.68
TrlEff (gene RPL24): −0.63
TrlEff (gene RPL26): −1.11
TrlEff (gene RPL27): −0.33
TrlEff (gene RPL27A): −0.96
Rapamycin TrlEff (gene RPL28): −1.59
TrlEff (gene RPL30): −0.99
TrlEff (gene RPL31): −0.62
TrlEff (gene RPL32): −0.97
TrlEff (gene RPL34): −1.12
TrlEff (gene RPL36A): −1.11
TrlEff (gene RPL37A): −1.02
TrlEff (gene RPL39): −1.65
Rapamycin TrlEff (gene RPL39): −2.11
TrlEff (gene RPL41): −1.15
TrlEff (gene RPLP0): −0.42
TrlEff (gene RPLP2): −1.18
TrlEff (gene RPS2): −0.56
TrlEff (gene RPS3): −0.92
TrlEff (gene RPS3A): −1.15
TrlEff (gene RPS4X): −1.15
TrlEff (gene RPS5): −0.77
TrlEff (gene RPS7): −0.76
TrlEff (gene RPS9): −0.60
TrlEff (gene RPS12): −1.22
TrlEff (gene RPS13): −0.82
TrlEff (gene RPS14): −0.60
TrlEff (gene RPS15): 0.03
TrlEff (gene RPS15A): −0.96
TrlEff (gene RPS19): −0.74
TrlEff (gene RPS20): −1.35
TrlEff (gene RPS21): −0.60
TrlEff (gene RPS25): −0.89
TrlEff (gene RPS27): −1.54
Rapamycin TrlEff (gene RPS27): −1.55
TrlEff (gene RPS27A): −0.89
TrlEff (gene RPS28): −0.80
Rapamycin TrlEff (gene SDCCAG10): −1.50
TrlEff (gene SLC19A1): 0.23
TrlEff (gene TKT): −0.11
TrlEff (gene TPT1): −1.22
TrlEff (gene TSC2): 0.34
TrlEff (gene UBA52): −0.22
Rapamycin TrlEff (gene UBTD2): −1.64
Rapamycin TrlEff (gene UCHL5): −1.56
Rapamycin TrlEff (gene VHL): 1.67
TrlEff (gene VIM): −0.40
TrlEff (gene YB1): −0.59
